The text below walks through data of article PMC6631223, “Chain-Branched Polyhydroxylated Octahydro-1H-Indoles as Potential Leads against Lysosomal Storage Diseases” (Pharmaceuticals, 2019).

What all share (assay type): biochemical
For assay [1], the target named is β-Glucosidase (almond). In words: Glycosidase inhibition: β-glucosidase (almond). The source says:
(§1) The enzymes α-glucosidase (from yeast, rice), β-glucosidase (from almonds, bovine liver), α-galactosidase (from coffee beans), β-galactosidase (from bovine liver), α-mannosidase (from jack beans), β-mannosidase (from snails), α-L-fucosidase (from bovine kidney), α-L-rhamnosidase (from Penicillium decumbens), β-glucuronidases (from Escherichia coli), α,α-trehalase (from porcine kidney), amyloglucosidase (from Aspergillus niger), p-nitrophenyl glycosides, and various disaccharides were purchased from Sigma-Aldrich Co. Brush border membranes were prepared from the rat small intestine according to the method of Kessler et al., and were assayed at pH 6.8 for rat intestinal maltase using maltose. For rat intestinal glucosidases and porcine kidney trehalase activities, the reaction mixture (0.2 mL) contained 25 mM substrate and the appropriate amount of enzyme, and the incubations were performed for 10 min at 37 °C. The reaction was stopped by heating at 100 °C for 3 min. After centrifugation (600 g; 10 min), 0.035 mL of the resulting reaction mixture were added to 2.1 mL of the Glucose CII-test Wako (Wako Pure Chemical Ind., Osaka, Japan). The absorbance at 505 nm was measured to determine the amount of the released D-glucose. Other glycosidase activities were determined using an appropriate p-nitrophenyl glycoside as substrate at the optimum pH of each enzyme. The reaction mixture (0.2 mL) contained 2 mM of the substrate and the appropriate amount of enzyme. The reaction was stopped by adding 0.4 mL of 400 mM Na2CO3. The released p-nitrophenol was measured spectrometrically at 400 nm.

Assay [2] has as its target T1, α-Galactosidase (coffee beans) (Coffea arabica, UniProt Q42656).
T1 construct: purchased Sigma-Aldrich Co
Put plainly: Glycosidase inhibition: α-galactosidase (coffee beans). The note with it: α-galactosidase, coffee beans.
Source text: as §1

Assay [3] addresses β-Mannosidase (snail). In words: Glycosidase inhibition: β-mannosidase (snail).
Source text: as §1

Assay [4] addresses T2, Lactase (β-Galactosidase) (Rattus norvegicus, UniProt Q02401).
T2 construct: Brush border membranes were prepared from the rat small intestine; from tissue; host or cells: rat small intestine brush border membranes (inferred)
T2 sequence (Q02401 868-1928): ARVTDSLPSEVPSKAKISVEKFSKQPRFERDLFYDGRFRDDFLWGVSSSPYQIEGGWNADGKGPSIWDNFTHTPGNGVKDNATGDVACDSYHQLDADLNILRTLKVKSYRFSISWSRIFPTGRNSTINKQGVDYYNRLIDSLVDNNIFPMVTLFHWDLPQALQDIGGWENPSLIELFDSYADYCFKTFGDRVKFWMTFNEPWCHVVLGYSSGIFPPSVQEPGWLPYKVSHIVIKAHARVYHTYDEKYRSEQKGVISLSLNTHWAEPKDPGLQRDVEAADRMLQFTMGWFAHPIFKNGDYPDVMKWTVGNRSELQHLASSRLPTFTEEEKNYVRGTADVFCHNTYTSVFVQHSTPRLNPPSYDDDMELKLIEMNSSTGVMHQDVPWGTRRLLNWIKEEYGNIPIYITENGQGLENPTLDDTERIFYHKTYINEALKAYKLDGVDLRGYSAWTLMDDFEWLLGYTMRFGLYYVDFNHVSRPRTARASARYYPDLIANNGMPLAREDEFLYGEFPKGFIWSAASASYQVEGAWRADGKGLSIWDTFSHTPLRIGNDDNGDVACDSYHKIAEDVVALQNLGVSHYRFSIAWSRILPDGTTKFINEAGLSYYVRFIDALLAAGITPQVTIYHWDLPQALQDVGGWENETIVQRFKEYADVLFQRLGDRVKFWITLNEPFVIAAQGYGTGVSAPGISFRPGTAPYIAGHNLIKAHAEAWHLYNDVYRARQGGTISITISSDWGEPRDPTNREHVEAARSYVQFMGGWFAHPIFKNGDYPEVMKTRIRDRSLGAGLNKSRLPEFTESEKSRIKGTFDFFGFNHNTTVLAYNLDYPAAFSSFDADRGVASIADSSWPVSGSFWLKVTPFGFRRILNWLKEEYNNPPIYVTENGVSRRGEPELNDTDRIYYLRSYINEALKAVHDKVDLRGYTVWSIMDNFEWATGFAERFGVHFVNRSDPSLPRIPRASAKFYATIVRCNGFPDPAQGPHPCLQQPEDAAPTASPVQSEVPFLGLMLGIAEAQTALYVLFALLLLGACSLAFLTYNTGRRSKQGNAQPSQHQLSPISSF
In words: Glycosidase inhibition: lactase. The settings on record: lactase.
Source text: as §1

In assay [5] the target is T3, α-Glucosidase (yeast) (Saccharomyces cerevisiae, UniProt P53341).
T3 construct: purchased Sigma-Aldrich Co
T3 sequence (P53341 whole entry): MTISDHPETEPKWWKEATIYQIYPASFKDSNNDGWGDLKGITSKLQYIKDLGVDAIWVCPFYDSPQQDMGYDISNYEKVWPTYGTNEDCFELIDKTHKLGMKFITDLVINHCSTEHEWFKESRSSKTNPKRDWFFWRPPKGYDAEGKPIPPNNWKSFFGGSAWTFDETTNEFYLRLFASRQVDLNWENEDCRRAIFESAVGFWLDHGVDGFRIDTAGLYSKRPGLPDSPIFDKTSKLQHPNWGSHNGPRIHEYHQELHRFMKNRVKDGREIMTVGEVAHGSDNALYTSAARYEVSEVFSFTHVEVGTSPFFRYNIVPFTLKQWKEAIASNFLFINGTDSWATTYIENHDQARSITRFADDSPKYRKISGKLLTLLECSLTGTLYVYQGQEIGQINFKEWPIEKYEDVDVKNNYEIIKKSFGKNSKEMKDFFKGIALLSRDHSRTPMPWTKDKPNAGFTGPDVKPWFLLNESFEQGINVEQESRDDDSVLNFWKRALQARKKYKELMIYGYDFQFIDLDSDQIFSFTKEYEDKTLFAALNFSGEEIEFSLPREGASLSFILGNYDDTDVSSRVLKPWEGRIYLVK
In words: Glycosidase inhibition: α-glucosidase (yeast).
Source text: as §1

Assay [6] has as its target T4, Amyloglucosidase (Aspergillus niger, UniProt P69328).
T4 construct: purchased Sigma-Aldrich Co
Put plainly: Glycosidase inhibition: amyloglucosidase (Aspergillus niger).
Source text: as §1

The target in assay [7] is Rat intestinal maltase. In words: Glycosidase inhibition: rat intestinal maltase. The note with it: maltose, pH 6.8.
Source text: as §1

For assay [8], the target named is T5, α-L-Fucosidase (bovine kidney) (Bos taurus, UniProt Q2KIM0).
T5 construct: purchased Sigma-Aldrich Co; host or cells: bovine kidney
T5 sequence (Q2KIM0 23-468): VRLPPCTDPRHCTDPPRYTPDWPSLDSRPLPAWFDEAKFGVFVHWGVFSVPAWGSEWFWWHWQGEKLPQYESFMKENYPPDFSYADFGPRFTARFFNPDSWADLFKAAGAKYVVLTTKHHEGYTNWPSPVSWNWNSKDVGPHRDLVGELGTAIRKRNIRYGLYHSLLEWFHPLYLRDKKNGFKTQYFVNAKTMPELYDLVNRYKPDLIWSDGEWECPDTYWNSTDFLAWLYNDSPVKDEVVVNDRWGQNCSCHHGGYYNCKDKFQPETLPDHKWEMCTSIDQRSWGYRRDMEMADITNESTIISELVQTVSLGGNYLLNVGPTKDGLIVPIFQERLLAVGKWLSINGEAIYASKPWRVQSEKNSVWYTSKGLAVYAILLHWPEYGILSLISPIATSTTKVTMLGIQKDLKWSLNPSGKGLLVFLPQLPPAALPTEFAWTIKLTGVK
In words: Glycosidase inhibition: α-L-fucosidase (bovine kidney). The settings on record: α-L-fucosidase, bovine kidney.
Source text: as §1

In assay [9] the target is T6, β-Glucronidase (E.coli) (Escherichia coli, UniProt P05804).
T6 construct: purchased Sigma-Aldrich Co
T6 sequence (P05804 whole entry): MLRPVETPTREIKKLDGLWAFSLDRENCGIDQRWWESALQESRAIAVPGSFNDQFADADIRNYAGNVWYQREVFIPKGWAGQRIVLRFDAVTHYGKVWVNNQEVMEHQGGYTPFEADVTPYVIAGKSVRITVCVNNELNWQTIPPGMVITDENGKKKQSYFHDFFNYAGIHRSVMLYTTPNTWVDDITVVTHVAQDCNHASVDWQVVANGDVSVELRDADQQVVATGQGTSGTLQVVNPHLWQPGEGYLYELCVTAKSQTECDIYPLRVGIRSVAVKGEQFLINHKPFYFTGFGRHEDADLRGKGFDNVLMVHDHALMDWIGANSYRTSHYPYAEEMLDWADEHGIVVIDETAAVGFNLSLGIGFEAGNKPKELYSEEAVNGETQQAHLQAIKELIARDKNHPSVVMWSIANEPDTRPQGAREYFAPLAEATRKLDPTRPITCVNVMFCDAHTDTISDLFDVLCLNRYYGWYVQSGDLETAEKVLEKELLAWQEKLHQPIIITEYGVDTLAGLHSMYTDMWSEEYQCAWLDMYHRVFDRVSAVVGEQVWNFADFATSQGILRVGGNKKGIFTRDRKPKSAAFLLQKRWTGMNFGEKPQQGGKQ
In words: Glycosidase inhibition: β-glucuronidase (E. coli).
Source text: as §1

Assay [10] has as its target T7, α-Glucosidase (rice) (Oryza sativa subsp. japonica, UniProt Q653V7).
T7 construct: purchased Sigma-Aldrich Co
In words: Glycosidase inhibition: α-glucosidase (rice).
Source text: as §1

T4 sequence (P69328 25-640): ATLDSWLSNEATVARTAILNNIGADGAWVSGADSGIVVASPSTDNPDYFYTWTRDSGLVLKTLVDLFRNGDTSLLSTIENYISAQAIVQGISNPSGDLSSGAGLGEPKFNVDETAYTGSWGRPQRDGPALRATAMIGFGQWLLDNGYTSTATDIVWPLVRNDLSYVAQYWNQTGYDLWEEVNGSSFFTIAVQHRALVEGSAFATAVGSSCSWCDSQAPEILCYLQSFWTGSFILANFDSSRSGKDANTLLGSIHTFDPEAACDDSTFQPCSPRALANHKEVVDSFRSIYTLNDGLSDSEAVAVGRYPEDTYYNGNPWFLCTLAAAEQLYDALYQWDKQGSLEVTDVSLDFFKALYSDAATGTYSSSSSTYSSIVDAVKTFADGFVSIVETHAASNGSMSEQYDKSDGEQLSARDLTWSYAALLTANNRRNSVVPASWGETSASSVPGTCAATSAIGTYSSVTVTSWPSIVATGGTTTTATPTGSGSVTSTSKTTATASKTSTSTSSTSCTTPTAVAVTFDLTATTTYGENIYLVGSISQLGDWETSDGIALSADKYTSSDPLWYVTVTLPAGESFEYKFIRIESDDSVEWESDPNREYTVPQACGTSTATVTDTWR
T7 sequence (Q653V7 34-885): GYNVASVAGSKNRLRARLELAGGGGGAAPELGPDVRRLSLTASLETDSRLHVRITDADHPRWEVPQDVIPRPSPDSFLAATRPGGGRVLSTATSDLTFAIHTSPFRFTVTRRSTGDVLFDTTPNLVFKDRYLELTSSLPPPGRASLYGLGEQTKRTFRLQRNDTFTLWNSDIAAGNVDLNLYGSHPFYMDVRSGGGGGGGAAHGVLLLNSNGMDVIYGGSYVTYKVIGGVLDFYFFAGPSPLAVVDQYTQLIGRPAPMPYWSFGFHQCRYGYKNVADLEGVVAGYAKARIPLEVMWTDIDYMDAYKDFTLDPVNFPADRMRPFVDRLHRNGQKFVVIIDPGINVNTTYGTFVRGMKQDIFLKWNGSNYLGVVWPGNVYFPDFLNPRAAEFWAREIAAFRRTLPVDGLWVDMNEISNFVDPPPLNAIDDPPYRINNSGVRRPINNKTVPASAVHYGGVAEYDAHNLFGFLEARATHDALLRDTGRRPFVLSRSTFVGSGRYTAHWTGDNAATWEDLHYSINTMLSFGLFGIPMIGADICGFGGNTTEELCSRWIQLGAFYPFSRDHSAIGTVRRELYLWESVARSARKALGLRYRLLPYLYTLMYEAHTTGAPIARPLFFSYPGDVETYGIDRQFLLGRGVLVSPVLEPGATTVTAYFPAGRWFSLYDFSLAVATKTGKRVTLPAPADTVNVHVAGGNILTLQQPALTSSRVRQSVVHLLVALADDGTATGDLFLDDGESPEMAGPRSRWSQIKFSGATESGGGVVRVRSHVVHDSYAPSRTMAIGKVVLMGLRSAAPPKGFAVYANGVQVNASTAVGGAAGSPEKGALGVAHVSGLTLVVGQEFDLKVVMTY
T1 sequence (Q42656 16-378): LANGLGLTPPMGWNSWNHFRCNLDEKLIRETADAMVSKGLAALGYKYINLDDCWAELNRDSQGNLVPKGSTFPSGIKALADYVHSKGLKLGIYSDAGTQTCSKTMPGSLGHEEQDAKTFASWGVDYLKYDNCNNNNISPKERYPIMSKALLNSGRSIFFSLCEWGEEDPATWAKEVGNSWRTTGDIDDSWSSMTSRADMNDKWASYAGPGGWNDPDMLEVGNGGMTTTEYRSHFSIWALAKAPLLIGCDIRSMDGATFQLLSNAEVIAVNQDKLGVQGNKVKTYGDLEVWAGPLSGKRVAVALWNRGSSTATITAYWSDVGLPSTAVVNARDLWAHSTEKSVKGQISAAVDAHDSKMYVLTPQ

For `OCCN1C[C@H](O)[C@@H](O)[C@H](O)[C@H]1CO` [Miglitol, miglitol, reference compound], the 50% inhibitory concentration (IC50) (in general, the point on the concentration scale where inhibition reaches its midpoint) in assay [1] is more than 1000 µM; in [2], more than 1000 µM; in [3], more than 1000 µM; in assay [4], more than 1000 µM; in assay [5] it was 70 µM; in [6], more than 1000 µM. In addition, the IC50 was more than 1000 µM in [7], more than 1000 µM in assay [8], more than 1000 µM in assay [9] and 0.17 µM in assay [10].
